Measurements from patent US6734316B2, “Esters of fatty acids and juvenoid alcohols, and a method of their preparation and use” (Institute of Organic Chemistry and Biochemistry ASCR, priority 2000, dated 2004).

Tested on: termite Prorhinotermes simplex
Assay: Force feeding test (FF): juvenilizing effect (induction of soldier caste differentiation) on termite pseudergates
Assay type: in vivo
Conditions: 500 ppm in treated food, 60 pseudergates, 16 days, soldier caste induction in percents of surviving individuals
Source text: A Way of Screening of the Biological Activity of the Compound Claimed in the claim 1 of the General Formula I Against Termite Prorhinotermes Simplex
Termites have only a sample of food treated with the compound claimed in the claim 1 of the general formula I in the force feeding test (FF), but a choice between a sample of food treated with the compound claimed in the claim 1 of the general formula I and a reference sample of food treated with acetone only. A treatment of the food samples with the compound I claimed in the claim 1 has been made in at least two concentrations, 500 ppm and 5 ppm. A number of 60 pseudergates was exposed to a treatment in each test, and each test is twice repeated. Each test has 16 days duration. The induction of the soldier caste differentiation has been evaluated as the juvenilizing effect. The result is given in percents of the number of surviving individuals. The juvenoid methoprene has been used as the reference compound for testing of the biological activity of the compound I claimed in the claim 1. The results of screening of several structures corresponding the general formula I claimed in the claim 1 in a concentration of 500 ppm are given in Table 1.

COC(C)(C)CCC[C@H](C)C/C=C/C(C)=C/C(=O)OC(C)C (racemic) [Methoprene, methoprene, reference compound]
Juvenilizing effect [%]: 1.3%

CCCCCCCC/C=C\CCCCCCCC(=O)O[C@H]1CCCC[C@H]1Cc1ccc(OCCNC(=O)OCC)cc1 (relative stereo) [Ethyl N-{2-{4-[(cis-2-(cis-9-octadecenoyl)oxycyclohexyl)methyl]phenoxy}ethyl} carbamate]
Juvenilizing effect [%]: 93.7%

CCCC(=O)O[C@H]1CCCC[C@H]1Cc1ccc(OCCNC(=O)OCC)cc1 (relative stereo) [Ethyl N-{2-{4-[(cis-2-butanoyloxycyclohexyl)methyl]phenoxy}ethyl} carbamate]
Juvenilizing effect [%]: 86.1%

CCCCCCCCCCCCCCCC(=O)O[C@H]1CCCC[C@H]1Cc1ccc(OCCNC(=O)OCC)cc1 (relative stereo) [Ethyl N-{2-{4-[(cis-2-hexadecanoyloxycyclohexyl)methyl]phenoxy}ethyl} carbamate]
Juvenilizing effect [%]: 89.1%

CCCCCCCCCCCCCCCCCC(=O)O[C@H]1CCCC[C@H]1Cc1ccc(OCCNC(=O)OCC)cc1 (relative stereo) [Ethyl N-{2-{4-[(cis-2-octadecanoyloxycyclohexyl)methyl]phenoxy}ethyl} carbamate]
Juvenilizing effect [%]: 40.0%

CCCCCCCC/C=C\CCCCCCCC(=O)O[C@@H]1CCCC[C@H]1Cc1ccc(OCCNC(=O)OCC)cc1 (relative stereo) [Ethyl N-{2-{4-[(trans-2-(cis-9-octadecenoyl)oxycyclohexyl)methyl]phenoxy}ethyl} carbamate]
Juvenilizing effect [%]: 64.7%

CCCC(=O)O[C@@H]1CCCC[C@H]1Cc1ccc(OCCNC(=O)OCC)cc1 (relative stereo) [Ethyl N-{2-{4-[(trans-2-butanoyloxycyclohexyl)methyl]phenoxy}ethyl} carbamate]
Juvenilizing effect [%]: 87.4%

CCCCCCCCCCCCCCCC(=O)O[C@@H]1CCCC[C@H]1Cc1ccc(OCCNC(=O)OCC)cc1 (relative stereo) [Ethyl N-{2-{4-[(trans-2-hexadecanoyloxycyclohexyl)methyl]phenoxy}ethyl} carbamate]
Juvenilizing effect [%]: 90.1%

CCCCCCCCCCCCCCCCCC(=O)O[C@@H]1CCCC[C@H]1Cc1ccc(OCCNC(=O)OCC)cc1 (relative stereo) [Ethyl N-{2-{4-[(trans-2-octadecanoyloxycyclohexyl)methyl]phenoxy}ethyl} carbamate]
Juvenilizing effect [%]: 70.0%
